Results published in PMC6026870, “Selective induction of cancer cell death by VDAC1‐based peptides and their potential use in cancer therapy” (Molecular Oncology, 2018).

Tests used:
[1] = system: HeLa cells; experiment: Cellular ATP levels, luciferase‐based assay (CellTiter‐Glo); type: cell-based, human; settings: 3 h, percentage of control, mean ± SE (n = 3) (Fig. 4F)
Protocol: Cellular ATP levels were estimated using a luciferase‐based assay (CellTiter‐Glo; Promega). […] ATP levels were assayed according to the manufacturer's protocol, and luminescence was recorded using an Infinite M1000 plate reader (Tecan, Männedorf, Switzerland).

[2] = system: A549 cells; experiment: Apoptosis, acridine orange/ethidium bromide staining; type: cell-based, human; settings: A549, 3 h; quantitation, mean ± SE (n = 3) (Fig. 5E)
Protocol: For PI and annexin V–FITC staining, A549 or MDA‐MB‐231 cells, untreated or treated with VDAC1‐based peptides, were collected (1500 g for 5 min), washed, and resuspended in 200 μL binding buffer (10 mM HEPES/NaOH (pH 7.4), 140 mM NaCl, and 2.5 mM CaCl2). Annexin V–FITC staining was performed according to the recommended protocol. Cells were then washed once with binding buffer and resuspended in 200 μL binding buffer, to which PI was added immediately before flow cytometric analysis. At least 10 000 events were collected, recorded on a dot plot, and analyzed by flow cytometer. Acridine orange/ethidium bromide staining was carried as described previously (Zaid et al., 2005), with cells visualized by fluorescence microscopy (Olympus LX2‐KSP, Tokyo, Japan), and images were captured with a CCD camera. About 200 cells were counted for each experiment.

[3] = system: A549 cells (HK‐I in cytosolic fraction); experiment: Mitochondria‐bound HK detachment, cell fractionation and immunoblotting; type: cell-based, human; settings: A549, peptide 3, 5, 10 μM, 3 h; digitonin […]; immunoblot (Fig. 4E)
Protocol: Peptide‐induced HK detachment from mitochondria to the cytosol was also analyzed by immunoblotting. […] Samples were centrifuged at 12 000 g at 4 °C for 10 min, and the obtained supernatants (cytosolic fraction) and pellets (mitochondria) were analyzed by immunoblotting using anti‐HK‐I, anti‐VDAC1, and anti‐GAPDH antibodies, and then with secondary HRP‐conjugated antibodies.

[4] = system: U‐87MG; experiment: Cell death, PI staining and FACS; type: cell-based; settings: anti‐TfR antibodies (1 : 250) 2 h, then peptide 5 μM 3 h, n = 2 (Fig. 3C)
Protocol: Leukemia cells, U‐937, MEC‐1 cells (4 × 10^5 or 8 × 10^5 cells/sample, respectively), as well as other leukemia or suspension cell lines, were incubated in 200 μL serum‐free medium with various concentrations of the peptide for 90 min at 23–25 °C, collected by centrifugation (500 g, 5 min), washed with PBS, and analyzed for cell death. Adherent cells (6 × 10^5 mL^−1 at 70–80% confluence) were incubated with the peptide of interest in 500 μL serum‐free recommended culture medium for 3–6 h at 37 °C and 5% CO2. The cells were then trypsinized, centrifuged (1500 g, 5 min), washed with PBS, and analyzed for the desired activity. Following peptide treatment, cells were subjected to cell death analysis. […] PRO software (BD Biosciences, San Jose, CA, USA).
For each line, cells were incubated with different peptide concentrations, and cell death was determined by PI staining and FACS analysis (Figs 1, 2, 3).

[5] = target: T1, HK‐I (Homo sapiens, UniProt P19367); experiment: HK activity assay with purified recombinant HK‐I; type: biochemical; settings: HK‐I 13 µg/ml pre‐incubated with peptide; 1 mM ATP, G6PDH‐coupled, absorbance at 340 nm (Fig. S3B)
T1 construct: His; made in house; host or cells: Escherichia coli BL21
T1 sequence (P19367 1-917): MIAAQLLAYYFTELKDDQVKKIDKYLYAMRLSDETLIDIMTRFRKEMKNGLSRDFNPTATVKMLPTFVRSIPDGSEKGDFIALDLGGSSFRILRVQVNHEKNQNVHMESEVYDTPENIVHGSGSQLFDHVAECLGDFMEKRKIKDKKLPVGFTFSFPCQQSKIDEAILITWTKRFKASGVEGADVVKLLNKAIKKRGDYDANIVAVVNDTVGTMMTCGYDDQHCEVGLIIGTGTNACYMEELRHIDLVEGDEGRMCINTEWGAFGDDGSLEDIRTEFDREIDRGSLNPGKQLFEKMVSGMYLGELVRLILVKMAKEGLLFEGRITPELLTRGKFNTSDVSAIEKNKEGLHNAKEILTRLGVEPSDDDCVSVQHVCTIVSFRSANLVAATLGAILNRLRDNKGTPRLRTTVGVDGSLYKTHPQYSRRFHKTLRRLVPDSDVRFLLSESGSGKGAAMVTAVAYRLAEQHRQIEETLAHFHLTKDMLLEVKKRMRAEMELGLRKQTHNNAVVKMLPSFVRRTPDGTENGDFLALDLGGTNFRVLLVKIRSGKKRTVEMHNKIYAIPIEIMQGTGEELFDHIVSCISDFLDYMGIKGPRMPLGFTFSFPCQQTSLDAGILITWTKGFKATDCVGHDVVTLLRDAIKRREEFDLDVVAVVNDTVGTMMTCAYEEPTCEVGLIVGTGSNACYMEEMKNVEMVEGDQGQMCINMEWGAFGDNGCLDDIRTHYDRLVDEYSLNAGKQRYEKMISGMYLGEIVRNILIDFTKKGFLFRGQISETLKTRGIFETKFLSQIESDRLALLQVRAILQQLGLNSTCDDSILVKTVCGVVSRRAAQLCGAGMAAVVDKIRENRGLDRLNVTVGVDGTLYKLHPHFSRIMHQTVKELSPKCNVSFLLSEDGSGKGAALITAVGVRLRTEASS
Protocol: Human HK‐I and HK‐II were cloned into plasmid pET‐His DNA and expressed in Escherichia coli BL21 upon IPTG induction. HK was purified from lysed cells using a HiTrap nickel column (GE Healthcare). Following dialysis, the imidazole‐eluted protein was further purified using a Blue HiTrap column (GE Healthcare). HK was eluted using 10 mM glucose, 20 mM Tris/HCl (pH 8.5), 20% glycerol, and 1.5 mM glucose‐6‐phosphate. Fractions were analyzed by SDS/PAGE and tested for HK activity. The purified active fractions were combined and stored in aliquots at −80 °C.
Change in absorbance at 340 nm (NADH production) was spectrophotometrically measured following addition of 1 mM ATP and 0.05 unit·mL^−1 glucose‐6‐phosphate dehydrogenase.
Purified HK-I (13 µg/ml) was pre-incubated with the indicated concentrations of Tf-D-LP4 (●) or R-Tf-D-LP4 (○) and assayed for HK activity as described in Materials and Methods. Change in absorbance at 340 nm (NADH production) was spectrophotometrically measured following addition of 1 mM ATP, and 0.05 unit/ml glucose-6-phosphate dehydrogenase. C. Tf-D-LP4 and R-Tf-D-LP4 solubility. The peptides were dissolved to a final concentration of 5 mM in 5% DMSO and diluted to 1.1 mM in HBSS. Peptide absorbance in the supernatant was measured at 280 nm following centrifugation at 12,000g before and after 75 min incubation at 24 °C. […] Cell death was analyzed using PI and FACS analysis. […]

CC[C@H](C)[C@H](NC(=O)[C@H](C)NC(=O)[C@@H](N)Cc1c[nH]cn1)C(=O)N[C@@H](Cc1ccc(O)cc1)C(=O)N1CCC[C@H]1C(=O)N[C@@H](CCCNC(=N)N)C(=O)N[C@@H](Cc1c[nH]cn1)C(=O)N[C@H](CO)C(=O)N[C@H](Cc1c[nH]c2ccccc12)C(=O)N[C@@H](C(=O)N[C@H](Cc1c[nH]c2ccccc12)C(=O)N[C@H](CCC(=O)O)C(=O)N[C@H](CCCCN)C(=O)N[C@H](CCCCN)C(=O)N[C@H](CC(C)C)C(=O)N[C@H](CCC(=O)O)C(=O)N[C@@H](C(=O)N[C@H](C)C(=O)N[C@@H](C(=O)N[C@H](CC(N)=O)C(=O)N[C@H](CC(C)C)C(=O)N[C@H](C)C(=O)N[C@H](Cc1c[nH]c2ccccc12)C(=O)N[C@@H](C(=O)N[C@H](C)C(=O)NCC(=O)N[C@H](CC(N)=O)C(=O)N[C@H](CO)C(=O)N[C@H](CC(N)=O)C(=O)N[C@H](CCCCN)C(=O)N[C@H](Cc1c[nH]c2ccccc12)C(=O)N[C@@H](C(=O)N[C@H](Cc1c[nH]c2ccccc12)C(=O)N[C@H](CCCCN)C(=O)O)[C@H](C)O)[C@H](C)O)C(C)C)[C@H](C)O)[C@H](C)O [Tf‐D‐LP4]
decrease of cellular ATP levels [1]: about 40% | apoptotic cell death (acridine orange/ethidium bromide) [2]: over 70% | increase in HK in the cytosolic fraction [3]: about twofold | decrease in peptide‐induced cell death in anti‐TfR antibody‐treated cells [4]: about twofold | inhibition of purified HK‐I activity [5]: but not Tf-D-LP4 inhibits HK-I activity
